Data on 7 compounds can be found in publication PMC12263630 (Frontiers in Pharmacology, 2025).

Data set [1] has as its target T1, human α2C adrenergic receptor (Homo sapiens, UniProt P18825).
T1 sequence (P18825 1-462): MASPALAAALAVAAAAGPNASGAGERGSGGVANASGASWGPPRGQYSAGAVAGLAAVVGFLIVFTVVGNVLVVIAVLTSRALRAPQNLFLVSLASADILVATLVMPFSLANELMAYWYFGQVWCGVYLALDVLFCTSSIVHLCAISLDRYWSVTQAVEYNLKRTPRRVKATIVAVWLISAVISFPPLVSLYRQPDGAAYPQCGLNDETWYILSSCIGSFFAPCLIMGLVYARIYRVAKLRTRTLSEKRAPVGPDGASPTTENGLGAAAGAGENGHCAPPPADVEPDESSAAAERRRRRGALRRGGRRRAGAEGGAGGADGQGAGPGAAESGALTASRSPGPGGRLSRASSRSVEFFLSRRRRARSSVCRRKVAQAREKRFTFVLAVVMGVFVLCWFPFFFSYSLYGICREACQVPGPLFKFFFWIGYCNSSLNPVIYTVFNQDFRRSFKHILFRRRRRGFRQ
In words: [35S]GTPγS binding assay, α2C. It is filed as biochemical. The conditions noted are these: for Max activity / EC50: α2CR; for Max activity: relative to maximal response of UK-14304; for EC50: [35S]GTPγS binding. On the procedure: (§1) Cells were transfected with constructs encoding either human α2A (Chem-1, rat hematopoietic cell line), or α2B or α2C (Cho-K1, Chinese hamster ovary cell line) adrenergic receptors. Each test compound was prepared in DMSO at 10 mM and diluted to indicated concentrations in the incubation buffer (20 mM HEPES, 100 mM NaCl, 10 mM MgCl2, 1 mM DTT, 1 mM EDTA, pH 7.4.
(§2) Binding data were generated as duplicates. […] Three parameter logistic equations were fitted to the data to obtain EC50 and Emax values.

The target of data set [2] is T2, human α2A adrenergic receptor (Homo sapiens, UniProt P08913).
T2 construct: expressed in transfected cells; host or cells: Chem-1 (rat hematopoietic cell line), membranes
T2 sequence (P08913 1-465): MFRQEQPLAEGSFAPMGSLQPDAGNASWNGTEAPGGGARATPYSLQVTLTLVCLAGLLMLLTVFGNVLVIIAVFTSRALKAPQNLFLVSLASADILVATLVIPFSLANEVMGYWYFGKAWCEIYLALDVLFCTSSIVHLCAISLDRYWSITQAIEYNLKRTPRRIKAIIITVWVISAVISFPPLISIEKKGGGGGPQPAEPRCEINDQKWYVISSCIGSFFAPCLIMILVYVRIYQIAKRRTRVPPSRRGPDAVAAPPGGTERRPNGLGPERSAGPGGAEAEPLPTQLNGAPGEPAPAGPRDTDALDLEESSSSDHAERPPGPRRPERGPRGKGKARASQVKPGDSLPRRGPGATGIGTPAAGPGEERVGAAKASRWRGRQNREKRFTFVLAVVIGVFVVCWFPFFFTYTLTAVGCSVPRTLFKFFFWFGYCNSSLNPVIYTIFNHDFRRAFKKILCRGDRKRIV
The experiment in a line: [35S]GTPγS binding assay, α2A. It is filed as biochemical. The settings on record: α2AR; relative to maximal response of UK-14304. On the procedure: as §1, §2
In general terms: Binding of GTPγS marks nucleotide exchange on a G protein.

The next data set concerns the target T3, human α2C adrenoceptor (Homo sapiens, UniProt P18825).
T3 construct: expressed in transfected cells
T3 sequence (P18825 1-462): T1 sequence (P18825 1-462)
The experiment in a line: β-arrestin recruitment chemiluminescent assay (PathHunter), α2C. Type of data set: cell-based. The settings on record: α2CR; for Max activity: relative to UK-14304. On the procedure: (§3) PathHunter cell lines were expanded from freezer stocks according to standard procedures. Cells were seeded in a total volume of 20 μL into white walled, 384-well microplates and incubated at 37°C for the appropriate time prior to testing. Intermediate dilution of sample stocks was performed to generate 5X sample in assay buffer. […] Vehicle concentration was 1%. […] Microplates were read following signal generation with a PerkinElmer Envision™ instrument for chemiluminescent signal detection.

In a further data set the target is T4, human α2A adrenoceptor (Homo sapiens, UniProt P08913).
T4 construct: expressed in transfected cells
T4 sequence (P08913 1-465): T2 sequence (P08913 1-465)
The experiment in a line: β-arrestin recruitment chemiluminescent assay (PathHunter), α2A. It is filed as cell-based. The settings on record: α2AR, relative to UK-14304. On the procedure: as §3
In general terms: Activated receptors often draw arrestin, which recruitment assays turn into a signal.

The next data set concerns sleep onset latency. From the text:
Chow and water were provided ad libitum for the duration of the study.

A further data set relates to memory consolidation. In words: Cued fear conditioning test. The settings on record: 10 and 20 μg/kg, 30 min before conditioning.
The conditions of data set [3]: assumed for free plasma calculation; ref Bol et al., 1997; cited from earlier work.
The target in data set [4] is T5, human α2B adrenergic receptor (Homo sapiens, UniProt P18089).
T5 sequence (P18089 1-450): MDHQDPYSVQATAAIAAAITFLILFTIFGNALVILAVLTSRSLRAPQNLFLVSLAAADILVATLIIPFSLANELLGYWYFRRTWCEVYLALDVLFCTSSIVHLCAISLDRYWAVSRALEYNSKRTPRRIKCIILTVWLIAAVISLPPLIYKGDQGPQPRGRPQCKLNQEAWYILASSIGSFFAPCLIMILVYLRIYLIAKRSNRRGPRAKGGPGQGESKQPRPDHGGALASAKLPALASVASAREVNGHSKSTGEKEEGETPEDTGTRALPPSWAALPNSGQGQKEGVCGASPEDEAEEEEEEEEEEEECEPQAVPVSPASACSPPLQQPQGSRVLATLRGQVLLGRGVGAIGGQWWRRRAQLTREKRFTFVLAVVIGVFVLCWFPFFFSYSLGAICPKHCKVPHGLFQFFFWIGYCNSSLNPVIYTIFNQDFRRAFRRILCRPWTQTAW
The experiment in a line: biochemical. As to the method:
as §1, §2

In data set [5] the test system is stress-induced immobility after repeated stress. The experiment in a line: Open space swim test. The settings on record: for time spent in the periphery, change vs vehicle controls / mean duration of immobility, change vs vehicle controls / mean distance travelled, change vs vehicle controls: Day 8, 40 μg/kg i.p. acute; for time spent in the periphery, change vs vehicle controls: p < 0.001.

For another data set, the target named is human α2B adrenoceptor (Homo sapiens, UniProt P18089). The experiment in a line: cell-based. On the procedure: as §3
Data set [6] deals with stress-induced immobility. The experiment in a line: Forced swim test. It is filed as in vivo, SD rats. The conditions noted are these: versus vehicle; for immobility time: 60 min prior.
Procedure: A total of 78 male SD rats (9–10 weeks old) were procured from Hylasco Biotechnology Pvt. Ltd., Hyderabad, India and were divided into seven groups (9–12 animals per group). Animals were housed in an environmentally controlled room at 22°C ± 3°C and relative humidity of 30–70 percent. Adequate fresh air supply of 12–15 air changes/hour was maintained. The temperature was maintained at 20°C–23°C. […] The lights of the acclimatization area were switched off at 06:00 p.m. Two rats per cage were housed in sterilized suspended standard, polysulfone cages, (Size: approximately L425 x B266 x H185 mm), with stainless steel top grills having facilities for holding pelleted food and drinking water in polycarbonate bottles with stainless steel sipper tubes. During the study period animals were housed in a single room. Animals received food and water ad libitum.
The test was carried out in transparent cylindrical glass containers measuring 46 cm in height and 20 cm in diameter. The containers were filled with water (23°C–25 °C) to a depth of 30 cm. Clean drying cages, heat lamps and heat pads were used for the animals that have finished the procedure to avoid hypothermia. The test was carried out in Dark Phase. […] A red bulb of 50 W was used for observation during Swim 1 and Swim 2 procedure. Swim 1 was carried out between 18:30 to 21:30 and Swim 2 was carried out between 19:30 to 21:30.
On test day, animals were dosed intramuscularly with respective treatment 60 min prior to performing FST. […] In swim 2, the first 1-min data was excluded from analysis and the remaining 5 min data was considered.
Rats were placed in the water-filled cylinder for 6 min during Swim 2. […] A rat was judged to be immobile when it remained floating in the water without struggling and was making only those movements necessary to keep its head above water. […] Water was changed after every session to avoid any influence on the next rat. […] The rats were placed in a swim chamber and behaviors were measured for 5 min on test day. Data was presented as total immobility time (in seconds) over the 5-min trial.
The nature of a further data set: in vivo. The settings on record: male, Sprague Dawley, rat. On the procedure: Male Sprague Dawley (SD) rats, 200–250 g, purchased from Charles River Laboratories (South San Francisco, CA) were used for microdialyses studies. Upon arrival, rats were group-housed in polycarbonate cages (2-3 rats per cage) and acclimated for at least 7 days prior to commencing the studies. […] Rats were tracked via unique identifying numbers.
Ten male SD rats with a jugular vein (JV) cannula were used in this study. Rats were anesthetized using isoflurane (2%, 800 mL/min O2). Bupivacaine was used for local anesthesia and carprofen for peri-/post-operative analgesia. Animals were placed in a stereotaxic frame (Kopf instruments, United States) and MetaQuant microdialysis probes (PAN membrane, BrainLink, Netherlands) were implanted into the prefrontal cortex (PFC), 4 mm exposed surface. Coordinates for the tips of the probes for the PFC are: antero-posterior (AP) = +3.4 mm from bregma, lateral (L) = −0.8 mm from midline and ventral (V) = −5.0 mm from dura, the toothbar set at −3.3 mm. […] The microdialysis probes were connected with flexible PEEK tubing to a microperfusion pump (Harvard PHD 2000 Syringe pump, Holliston, MA). […] Microdialysis samples were collected for 30 min periods by an automated fraction collector (820 Microsampler, Univentor, Malta) into 300 µL polypropylene mini-vials. […]

A further data set concerns CCK-4 induced anxiety. In words: CCK-4 elevated plus maze test.
A further data set has as its system motor coordination. The experiment in a line: Rotarod test. The conditions noted are these: 4 mg/kg i.p., 30 min before test; p < 0.01. As to the method: 75 male Swiss mice (6 weeks old, 29–41 g body weight range at the beginning of the experiment) were supplied by Janvier Labs (Le Genest St Isle, France). […] Environmental enrichment such as gnawing and nesting material was provided.
On Day 0, mice were submitted to two training trials separated by a 5-min interval. For each trial, mice were placed on a rod (diameter: 7 cm) rotating at a speed of 18 revolutions per minute for a 3-min period. On Day 1, a final training was performed in the morning (at least 2 h before the drug testing). On Day 1, the test session was performed at least 2 h after the habituation period (in the afternoon) and mice were placed on the rod for a maximum period of 3 min. The latency to fall off the rod was recorded. Data was analyzed by using one-way ANOVA followed by Dunnett’s comparisons test.75 male Swiss mice (6 weeks old, 29–41 g) were allocated into five groups (10–15 animals per group).
Background: In the rotarod test animals must keep their balance on a rotating rod.

Where [7] appears, read: daily i.p. Day 8 to Day 32, 40 μg/kg, p < 0.0001.

Read-outs that look alike come from different tables or passages of the source.

Source text for CCK-4 induced anxiety: 48 male Wistar rats were supplied by Janvier (Le Genest St Isle, France) for this study. They were purchased at a body weight of 150 g and reached a body weight of about 270 g at the time of use.
In the present study, 12 animals per group were used. The apparatus is a PVC maze covered with Plexiglas and subdivided into four equal exploratory arms (40 × 10 cm), which are all interconnected by a small platform (10 × 10 cm). The apparatus is placed 65 cm above the floor. Two arms are open, and two others are closed with transparent wall (high: 10 cm).
After compound administration, a rat is placed on the platform opposite a closed arm. The number of entries and the time spent on each arm are recorded during a 5 min period. The animal is considered as entered in an arm when it places its four paws in the arm. The apparatus was cleaned between each animal using alcohol (70%). Urine and feces were removed from the maze. Data were analyzed by One way ANOVA followed by Dunnett’s comparisons test. CCK-4 (0.2 mg/kg) was administered intraperitoneally in the Wistar rats 30 min prior to the test. […] 60 min prior to the study (30 min prior to CCK-4 administration). Diazepam (1 mg/kg) was administered 30 min prior to study (at the time of CCK-4 administration). After the administration of compounds, rats were placed on the platform opposite a closed arm in the elevated plus maze. The number of entries and the time spent in each arm were recorded during a 5 min period. The animal was considered as entered in an arm when it placed its four paws in the arm.
Source text for memory consolidation: Rats were housed 1 animal per cage in sterilized solid bottom polycarbonate cages (Dimensions 42.5 cm [L] X 26.5 cm [W] X 18.5 cm [H]) with stainless steel grill tops, facilitate for food and water bottle, and bedding of corncob husk.
Rodent fear conditioning chambers (L x W x H, rat: 26 × 30 × 33 cm, Coulbourn instruments. United States) placed in sound attenuating cabinets were used. Stainless steel grid floors (L x W, rat: 26 × 30 cm), connected to shock scramblers were used to deliver the shock. A ventilation fan provided a background noise of 60 dB. A light bulb (centered on the right wall, and 27 cm above the floor of the chamber) provided ambient illumination. Experiments were recorded using video camera, mounted on the cabinet ceiling and images were analyzed with freeze frame 3 software (V3.2.1). The fear conditioning chambers have transparent acrylic panels. All experimentations were carried out in a single fear conditioning chamber.
On day 0, animals were randomized into eight groups based on their body weight.
Session-I: On day 1 (N = 5), rats were brought to the laboratory at least 1 h prior to experimentation. […]
On day 2, rats were brought to the laboratory at least 1 h prior to experimentation. […] The freezing behavior of the animals was recorded for 6 min (starting from the time the animal placed in the fear conditioning chamber). […]

Turning to `Clc1cccc(Cl)c1N=C1NCCN1` [Clonidine], the “intrinsic activity at the α2C-AR” value in data set [1] (in words, repeated in two assay systems) is “very low intrinsic activity”. The Max activity in data set [1] was determined as 32%; in [2], 76%; at human α2C adrenoceptor it was 8%; at human α2A adrenoceptor, 93%.

On to `Cc1cccc([C@H](C)c2cnc[nH]2)c1C` [Dexmedetomidine], for which the “onset of SWS” value with sleep onset latency (5 μg/kg intramuscular) and in the data set on sleep onset latency (20 μg/kg intramuscular) was “significantly reduced” in each case. The “memory formation (duration of freezing)” value in the data set on memory consolidation was “did not impair memory formation”. Further, the EC50 in [1] was found to be 0.014 µM; in data set [4], 0.0028 µM; on human α2B adrenoceptor, 0.0006 µM; at human α2C adrenoceptor, 0.024 µM. The Max activity came out at 110% in data set [1]; 147% in [4]; 89% in data set [2]; 106% at human α2B adrenoceptor; 95% on human α2C adrenoceptor; 101% on human α2A adrenoceptor. In addition, the “bound to plasma proteins” value in [3] is given as 84%. Besides, the “time spent in the periphery, change vs vehicle controls” value was “+159%” in data set [5] (first treated group) and “+138%” in [5] (second treated group). In addition, the “mean duration of immobility, change vs vehicle controls” value in data set [5] (first treated group, p < 0.01) is −43%; in data set [5] (second treated group, p < 0.01), −36%. Moreover, the “mean distance travelled, change vs vehicle controls” value is given as “+31%” in data set [5] (first treated group, p < 0.05) and “+36%” in data set [5] (second treated group, p < 0.01). In addition, in [5] (setting [7]), the “mean distance travelled over the testing period” value is recorded as “increased”. The “mean duration of immobility over the testing period” value in [5] (setting [7]) is reported as “decreased”. Moreover, in [5] (setting [7]), the “time spent in the periphery over the testing period” value is reported as “increased”. Moreover, the immobility time entry is given as “significantly decreased” in data set [6] (1 μg/kg intramuscular, p = 0.0238) and “significantly decreased” in data set [6] (5 μg/kg intramuscular, p < 0.0001). The time to peak (Tmax) in the data set “in vivo” was in the range of 30 to 60 min.

Take `CN1C(=O)CN=C(c2ccccc2)c2cc(Cl)ccc21` [Diazepam]: the “effects in elevated plus maze, positive control” value in the data set with CCK-4 induced anxiety (1 mg/kg, 30 min prior, with CCK-4) is reported as “exceeded those measured in vehicle animals”. Besides, the “latency to fall-off, change vs vehicle controls” value in the data set with motor coordination was −60%.

With `N=C(N)NC(=O)Cc1c(Cl)cccc1Cl` [Guanfacine], the Max activity in data set [1] was 72%; in data set [2], 78%; at human α2C adrenoceptor, 68%; on human α2A adrenoceptor, 100%.

With `CC(Oc1c(Cl)cccc1Cl)C1=NCCN1` (centres unmarked) [Lofexidine], the figures for the EC50 in data set [1] and in data set [4] were 0.023 µM and 0.043 µM, respectively. The Max activity in data set [1] is listed as 50%; in data set [4] (α2BR, relative to maximal response of UK-14304), 97%.

As for `CN(C)CCCN1c2ccccc2CCc2ccccc21` [imipramine], in [6] (30 mg/kg), the “immobility time, positive control” value is “p = 0.0002 versus vehicle”.

As to Cholecystokinin tetrapeptide [CCK-4], the “number of entries in the open arms” value with CCK-4 induced anxiety (CCK-4 0.2 mg/kg i.p. alone, vehicle 4.3) was 1.3. Also, the “time spent in the open arms” value in the data set with CCK-4 induced anxiety (CCK-4 0.2 mg/kg i.p. alone, vehicle 45 s) is 6 s.

A word on the EC50: it is the concentration giving half of the maximal effect. The Tmax is the time at which the peak concentration occurs.
